Data reported in ChEMBL document CHEMBL3286170, “Design, synthesis and antimycobacterial activity evaluation of natural oridonin derivatives” (2014).
Converted amounts (≈) assume the structure as drawn.

Columns and labels:
Format in all cases: functional
Mycobacterium marinum = test: Antimycobacterial activity against Mycobacterium marinum ATCC 927 after 7 days; details: ATCC 927, 168 h
Mycolicibacterium phlei = test: Antimycobacterial activity against Mycobacterium phlei ATCC 355 after 1 day by alamar blue assay; details: ATCC 355, 24 h
[1] = tested on: Mycolicibacterium smegmatis; test: Antimycobacterial activity against Mycobacterium smegmatis ATCC 19420 after 1 day; details: ATCC 19420, 24 h

| Structure (SMILES) | MIC (Mycobacterium marinum) | MIC (Mycolicibacterium phlei) | MIC [1] |
| --- | --- | --- | --- |
| C=C1C(=O)[C@]23[C@H](OC(=O)c4ccc(F)cc4)[C@H]1CC[C@H]2[C@@]12CO[C@]3(O)[C@@H](O)[C@@H]1C(C)(C)CC[C@@H]2O | – | 32 µg/mL (≈ 65.8 µM) | – |
| C=C1C(=O)[C@]23[C@H](OC(=O)c4cccnc4)[C@H]1CC[C@H]2[C@@]12CO[C@]3(O)[C@@H](O)[C@@H]1C(C)(C)CC[C@@H]2O | – | 16 µg/mL (≈ 34.1 µM) | – |
| C=C1C(=O)[C@]23[C@H](OC(=O)Cc4c[nH]c5ccccc45)[C@H]1CC[C@H]2[C@@]12CO[C@]3(O)[C@@H](O)[C@@H]1C(C)(C)CC[C@@H]2O | – | 32 µg/mL (≈ 61.3 µM) | – |
| C=C1C(=O)[C@]23[C@H](O)[C@H]1CC[C@H]2[C@@]12CO[C@]3(O)[C@@H](O)[C@@H]1C(C)(C)CC[C@@H]2O [ORIDONIN] | > 64 µg/mL | 16 µg/mL (≈ 43.9 µM) | > 64 µg/mL |
| C=C1C(=O)[C@]23[C@H](OC(=O)c4ccc(C(F)(F)F)cc4)[C@H]1CC[C@H]2[C@@]12CO[C@]3(O)[C@@H](O)[C@@H]1C(C)(C)CC[C@@H]2O | – | 16 µg/mL (≈ 29.8 µM) | – |
| C=C1C(=O)[C@@]23C(=O)O[C@H]4CCC(C)(C)[C@H]5C(=O)OC[C@@]45[C@@H]2CC[C@@H]1[C@H]3O | – | 16 µg/mL (≈ 44.4 µM) | – |
| C=C1C(=O)[C@@]23C(=O)O[C@H]4CCC(C)(C)[C@H]5[C@H](O)OC[C@@]45[C@@H]2CC[C@@H]1[C@H]3O | – | 32 µg/mL (≈ 88.3 µM) | – |
| C=C1C(=O)[C@@]23C(=O)O[C@H]4CCC(C)(C)[C@H]5[C@H](O)OC[C@@]45[C@@H]2CC[C@@H]1[C@H]3OC(C)=O | – | 32 µg/mL (≈ 79.1 µM) | – |
| C=C1C(=O)[C@]23[C@H](OC(=O)c4ccc(C(F)(F)F)cc4)[C@H]1CC[C@H]2[C@@]12CO[C@]3(O)[C@@H](O)[C@@H]1C(C)(C)CCC2=O | – | 16 µg/mL (≈ 29.9 µM) | – |
| C=C1C(=O)[C@]23[C@H](O)[C@H]1CC[C@H]2[C@@]12CO[C@]3(O)[C@@H](O)[C@@H]1C(C)(C)CCC2=O | – | 8 µg/mL (≈ 22.1 µM) | – |
| C=C1C(=O)[C@]23[C@H](OC(=O)C4CCCCC4)[C@H]1CC[C@H]2[C@@]12CO[C@]3(O)[C@@H](O)[C@@H]1C(C)(C)CCC2=O | – | 16 µg/mL (≈ 33.9 µM) | – |
| C=C1C(=O)[C@]23[C@H](OC(=O)c4ccc(C(F)(F)F)cc4)[C@H]1CC[C@H]2[C@@]12CO[C@]3(O)[C@@H](O)[C@@H]1C(C)(C)CC[C@@H]2OC(C)=O | – | 16 µg/mL (≈ 27.7 µM) | – |
| C=C1C(=O)[C@@]23C(=O)O[C@H]4CCC(C)(C)[C@H]5[C@H](O)OC[C@@]45[C@@H]2CC[C@@H]1[C@H]3OC(=O)c1ccc(C(F)(F)F)cc1 | 16 µg/mL (≈ 29.9 µM) | 8 µg/mL (≈ 15 µM) | 16 µg/mL (≈ 29.9 µM) |
| C=C1C(=O)[C@]23[C@H](OC(=O)C45CC6CC(CC(C6)C4)C5)[C@H]1CC[C@H]2[C@@]12CO[C@]3(O)[C@@H](O)[C@@H]1C(C)(C)CC[C@@H]2O | – | 16 µg/mL (≈ 30.4 µM) | – |

The remaining molecules from weak to strong by MIC (Mycolicibacterium phlei), led by results:

| MIC (Mycobacterium marinum) | MIC (Mycolicibacterium phlei) | MIC [1] | Structure (SMILES) |
| --- | --- | --- | --- |
| – | 8 µg/mL (≈ 15.5 µM) | – | C=C1C(=O)[C@]23[C@H](OC(=O)C4CCCCC4)[C@H]1CC[C@H]2[C@@]12CO[C@]3(O)[C@@H](O)[C@@H]1C(C)(C)CC[C@@H]2OC(C)=O |
| – | 8 µg/mL (≈ 16.9 µM) | – | C=C1C(=O)[C@]23[C@H](OC(=O)C4CCCCC4)[C@H]1CC[C@H]2[C@@]12CO[C@]3(O)[C@@H](O)[C@@H]1C(C)(C)CC[C@@H]2O |
| 64 µg/mL (≈ 125 µM) | 8 µg/mL (≈ 15.7 µM) | 16 µg/mL (≈ 31.3 µM) | C=C1C(=O)[C@]23[C@H](OC(=O)/C=C/c4ccc(F)cc4)[C@H]1CC[C@H]2[C@@]12CO[C@]3(O)[C@@H](O)[C@@H]1C(C)(C)CCC2=O |
| 64 µg/mL (≈ 115 µM) | 8 µg/mL (≈ 14.4 µM) | 16 µg/mL (≈ 28.8 µM) | C=C1C(=O)[C@]23[C@H](OC(=O)/C=C/c4ccc(F)cc4)[C@H]1CC[C@H]2[C@@]12CO[C@]3(O)[C@@H](O)[C@@H]1C(C)(C)CC[C@@H]2OC(C)=O |
| 32 µg/mL (≈ 68 µM) | 4 µg/mL (≈ 8.5 µM) | 32 µg/mL (≈ 68 µM) | C=C1C(=O)[C@]23[C@H](OC(=O)c4cnccn4)[C@H]1CC[C@H]2[C@@]12CO[C@]3(O)[C@@H](O)[C@@H]1C(C)(C)CC[C@@H]2O |
| 64 µg/mL (≈ 159 µM) | 2 µg/mL (≈ 4.97 µM) | 64 µg/mL (≈ 159 µM) | C=C1C(=O)[C@@]23C(=O)O[C@H]4CCC(C)(C)[C@H]5C(=O)OC[C@@]45[C@@H]2CC[C@@H]1[C@H]3OC(C)=O |
| 32 µg/mL (≈ 65 µM) | 2 µg/mL (≈ 4.06 µM) | 16 µg/mL (≈ 32.5 µM) | C=C1C(=O)[C@@]23C(=O)O[C@H]4CCC(C)(C)[C@H]5[C@H](O)OC[C@@]45[C@@H]2CC[C@@H]1[C@H]3OC(=O)/C=C/c1ccccc1 |
| 8 µg/mL (≈ 15.6 µM) | 2 µg/mL (≈ 3.9 µM) | 4 µg/mL (≈ 7.8 µM) | C=C1C(=O)[C@]23[C@H](OC(=O)/C=C/c4ccc(F)cc4)[C@H]1CC[C@H]2[C@@]12CO[C@]3(O)[C@@H](O)[C@@H]1C(C)(C)CC[C@@H]2O |
| 32 µg/mL (≈ 61.2 µM) | 2 µg/mL (≈ 3.83 µM) | 16 µg/mL (≈ 30.6 µM) | C=C1C(=O)[C@@]23C(=O)O[C@H]4CCC(C)(C)[C@H]5[C@H](O)OC[C@@]45[C@@H]2CC[C@@H]1[C@H]3OC(=O)/C=C/c1ccc(OC)cc1 |
| 32 µg/mL (≈ 66.3 µM) | 2 µg/mL (≈ 4.15 µM) | 16 µg/mL (≈ 33.2 µM) | C=C1C(=O)[C@@]23C(=O)O[C@H]4CCC(C)(C)[C@H]5C(=O)OC[C@@]45[C@@H]2CC[C@@H]1[C@H]3OC(=O)c1ccc(F)cc1 |
| 16 µg/mL (≈ 32.6 µM) | 2 µg/mL (≈ 4.08 µM) | 16 µg/mL (≈ 32.6 µM) | C=C1C(=O)[C@]23[C@H](OC(=O)CCCCCCC)[C@H]1CC[C@H]2[C@@]12CO[C@]3(O)[C@@H](O)[C@@H]1C(C)(C)CC[C@@H]2O |
| 32 µg/mL (≈ 78.7 µM) | 1 µg/mL (≈ 2.46 µM) | 16 µg/mL (≈ 39.4 µM) | C=C1C(=O)[C@]23[C@H](O)[C@H]1CC[C@H]2[C@@]12CO[C@@]3(O)[C@@H](O)[C@@H]1C(C)(C)CC[C@@H]2OC(C)=O [LASIOKAURIN] |
| 8 µg/mL (≈ 16.2 µM) | 1 µg/mL (≈ 2.02 µM) | 8 µg/mL (≈ 16.2 µM) | C=C1C(=O)[C@]23[C@H](OC(=O)/C=C/c4ccccc4)[C@H]1CC[C@H]2[C@@]12CO[C@]3(O)[C@@H](O)[C@@H]1C(C)(C)CC[C@@H]2O |
| 16 µg/mL (≈ 28.8 µM) | 1 µg/mL (≈ 1.8 µM) | 8 µg/mL (≈ 14.4 µM) | C=C1C(=O)[C@]23[C@H](OC(=O)/C=C/c4ccc(OC)c(OC)c4)[C@H]1CC[C@H]2[C@@]12CO[C@]3(O)[C@@H](O)[C@@H]1C(C)(C)CC[C@@H]2O |
| 4 µg/mL (≈ 7.87 µM) | 0.5 µg/mL (≈ 0.983 µM) | 4 µg/mL (≈ 7.87 µM) | C=C1C(=O)[C@@]23C(=O)O[C@H]4CCC(C)(C)[C@H]5C(=O)OC[C@@]45[C@@H]2CC[C@@H]1[C@H]3OC(=O)/C=C/c1ccc(F)cc1 |
| 4 µg/mL (≈ 8.15 µM) | 0.5 µg/mL (≈ 1.02 µM) | 4 µg/mL (≈ 8.15 µM) | C=C1C(=O)[C@@]23C(=O)O[C@H]4CCC(C)(C)[C@H]5C(=O)OC[C@@]45[C@@H]2CC[C@@H]1[C@H]3OC(=O)/C=C/c1ccccc1 |
| 0.5 µg/mL (≈ 0.86 µM) | 0.5 µg/mL (≈ 0.86 µM) | 0.125 µg/mL (≈ 0.215 µM) | CN[C@@H]1[C@H](O[C@H]2[C@H](O[C@H]3[C@H](O)[C@@H](O)[C@H](N=C(N)N)[C@@H](O)[C@@H]3N=C(N)N)O[C@@H](C)[C@]2(O)C=O)O[C@@H](CO)[C@H](O)[C@H]1O [STREPTOMYCIN] |
| 16 µg/mL (≈ 31.3 µM) | 0.5 µg/mL (≈ 0.979 µM) | 16 µg/mL (≈ 31.3 µM) | C=C1C(=O)[C@@]23C(=O)O[C@H]4CCC(C)(C)[C@H]5[C@H](O)OC[C@@]45[C@@H]2CC[C@@H]1[C@H]3OC(=O)/C=C/c1ccc(F)cc1 |
| 4 µg/mL (≈ 7.62 µM) | 0.5 µg/mL (≈ 0.953 µM) | 4 µg/mL (≈ 7.62 µM) | C=C1C(=O)[C@]23[C@H](OC(=O)/C=C/c4ccc(OC)cc4)[C@H]1CC[C@H]2[C@@]12CO[C@]3(O)[C@@H](O)[C@@H]1C(C)(C)CC[C@@H]2O |
